Assays:
[1] = target: T1, Signal transducer and activator of transcription 5A (Homo sapiens, UniProt P42229); assay: Inhibition of Stat5 phosphorylation in human HEL cells after 1 hr by Western blotting
T1 sequence (P42229 whole entry): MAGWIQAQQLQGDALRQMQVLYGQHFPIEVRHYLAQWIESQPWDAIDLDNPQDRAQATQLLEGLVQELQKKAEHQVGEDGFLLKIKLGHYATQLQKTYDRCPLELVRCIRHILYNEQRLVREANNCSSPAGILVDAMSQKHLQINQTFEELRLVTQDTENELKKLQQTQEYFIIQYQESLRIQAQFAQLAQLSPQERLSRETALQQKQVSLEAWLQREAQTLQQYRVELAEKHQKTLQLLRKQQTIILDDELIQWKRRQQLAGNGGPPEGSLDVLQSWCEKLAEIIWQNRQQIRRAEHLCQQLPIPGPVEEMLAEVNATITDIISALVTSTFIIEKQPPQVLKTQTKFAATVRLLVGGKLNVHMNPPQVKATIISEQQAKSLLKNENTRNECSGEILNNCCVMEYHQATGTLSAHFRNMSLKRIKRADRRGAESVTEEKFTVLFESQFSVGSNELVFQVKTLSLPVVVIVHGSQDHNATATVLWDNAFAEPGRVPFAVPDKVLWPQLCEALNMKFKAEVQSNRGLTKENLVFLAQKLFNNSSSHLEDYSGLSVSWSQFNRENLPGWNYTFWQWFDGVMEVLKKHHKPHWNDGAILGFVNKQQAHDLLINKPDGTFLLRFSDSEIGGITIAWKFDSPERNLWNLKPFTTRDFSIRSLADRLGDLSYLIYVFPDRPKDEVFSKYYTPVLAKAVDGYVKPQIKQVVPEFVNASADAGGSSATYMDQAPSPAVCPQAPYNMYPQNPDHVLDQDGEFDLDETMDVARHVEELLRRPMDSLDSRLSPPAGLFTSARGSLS

[2] = target: T2, Signal transducer and activator of transcription 3 (Homo sapiens, UniProt P40763); assay: Inhibition of Stat3 phosphorylation in human HEL cells after 1 hr by Western blotting
[3] = target: T1, Signal transducer and activator of transcription 5A; assay: Inhibition of Stat5 phosphorylation in human SET2 cells after 1 hr by Western blotting
[4] = target: T2, Signal transducer and activator of transcription 3; assay: Inhibition of Stat3 phosphorylation in human SET2 cells after 1 hr by Western blotting

T2 sequence (P40763 whole entry): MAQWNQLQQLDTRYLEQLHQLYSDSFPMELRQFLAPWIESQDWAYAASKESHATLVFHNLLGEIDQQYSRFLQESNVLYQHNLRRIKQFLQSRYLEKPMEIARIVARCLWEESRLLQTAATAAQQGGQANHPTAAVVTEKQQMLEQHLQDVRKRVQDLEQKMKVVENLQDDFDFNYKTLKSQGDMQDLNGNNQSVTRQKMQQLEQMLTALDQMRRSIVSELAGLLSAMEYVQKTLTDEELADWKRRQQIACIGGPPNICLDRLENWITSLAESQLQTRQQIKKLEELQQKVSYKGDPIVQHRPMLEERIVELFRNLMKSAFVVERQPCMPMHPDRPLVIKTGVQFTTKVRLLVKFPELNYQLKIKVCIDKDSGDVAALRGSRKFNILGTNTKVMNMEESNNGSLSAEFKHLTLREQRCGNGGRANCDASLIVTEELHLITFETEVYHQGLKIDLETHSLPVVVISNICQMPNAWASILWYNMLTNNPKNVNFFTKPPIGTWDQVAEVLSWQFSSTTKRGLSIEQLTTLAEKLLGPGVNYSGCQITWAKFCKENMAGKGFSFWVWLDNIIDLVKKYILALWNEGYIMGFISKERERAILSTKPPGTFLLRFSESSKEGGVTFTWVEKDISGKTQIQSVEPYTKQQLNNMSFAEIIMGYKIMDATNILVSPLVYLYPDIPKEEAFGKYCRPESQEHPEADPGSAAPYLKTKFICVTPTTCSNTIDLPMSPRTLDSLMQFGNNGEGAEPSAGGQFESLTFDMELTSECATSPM

`Cc1cc(Nc2nc(N[C@@H](C)c3ncc(F)cn3)ncc2Cl)[nH]n1` [5-Chloro-N2-[(1S)-1-(5-fluoropyrimidin-2-yl)ethyl]-N4-(5-methyl-1H-pyrazol-3-yl)pyrimidine-2,4-diamine] gave an IC50 [1] of 41 nM, an IC50 [2] of 80 nM and an IC50 [3] of 25 nM. It also gave an IC50 [4] of 23 nM.
